For series [1], the system named is primary cilium of islet beta cells. Briefly: Cilia Ca2+ imaging in mouse islets. Type of series: cell-based. The conditions noted are these: GABA 1-10 nM; GABAB-receptor agonist Baclofen; Vigabatrin (inhibition of GABA degradation).
In a further series the test system is male Wistar rats. Description: 30-min filament middle cerebral artery occlusion. Format: in vivo, rat. To be noted: 48 h after MCAO; healthy 18 points, maximal deficit 3 points.
Series [2] has as its system mouse cardiac endothelial cells (MCECs). Description: Methylglyoxal treatment of mouse cardiac endothelial cells. Type of series: cell-based.
The next series concerns H9C2 cells. Briefly: 2-NBD-Glucose uptake. The conditions noted are these: for 2-NBD-Glucose uptake after MG: 25μM MG 24h, after 60 min; for 2-NBD-Glucose uptake after insulin: 100nM 30min, 20 minutes. Type of series: cell-based.
Series [3] can be described thus: Sodium-phenylbutyrate 2-week crossover trial in type 2 diabetes.
The subject of the next series is INS1E cells. Description: Fatty acid toxicity in INS1E cells. To be noted: 24 h. Format: cell-based, rat.
Series [4] can be described thus: SURPASS-2, add-on to metformin in type 2 diabetes. Type of series: in vivo, human. To be noted: TZP range over 5-15 mg; SEMA 1 mg.
A short description of series [5]: 3-month exercise training with carnosine or placebo in overweight elderly. Format: in vivo, human.
Series [6] can be described thus: Ciprofibrate 5-week crossover study in prediabetic male volunteers. Type of series: in vivo, human.
A short description of series [7]: Contribution of HFCS-55 fructose to hepatic fatty acid synthesis, 13C/2H NMR. Type of series: in vivo, mouse.
Series [8] can be described thus: SUSTAIN 10 post hoc analysis by baseline SGLT-2i. Type of series: in vivo, human.
A further series deals with INS-1 832/13 cells. Description: mRNA expression in INS-1 832/13 cells under ER stress. Format: cell-based, rat.
The format of series [9] is in vivo, human. The conditions noted are these: once weekly.
A short description of series [10]: RESTORE-2 naive cohort, retrospective propensity score matched study. Format: in vivo, human. To be noted: for Incidence rate of blood glucose <54 mg/dl / Incidence rate of blood glucose ≤70 mg/dl: during 6 months; for FBG change at 6 months / FBG reduction at 6 months / HbA1c reduction from baseline to 12 months: in vivo; for HbA1c change from baseline to 6 months: propensity score matched, 357 per cohort.

A short description of series [11]: Insulin icodec titration trial, CGM hypoglycaemia duration, insulin-naive T2D. Type of series: in vivo, human. The conditions noted are these: 4.4-7.2 mmol/L ±4 U/day.
The format of series [12] is in vivo, human. To be noted: comparator arm.
The mark [13] stands for this setting: 2-step hyperinsulinemic-euglycemic clamp.
Where [14] appears, read: training combined with carnosine 2g/day.

Where two headings read alike, the source gives them in different places.

Regarding `NCC(CC(=O)O)c1ccc(Cl)cc1` (stereo not shown) [Baclofen], the “Increase of occurrence of cilia Ca2+ flashes” value in series [1] was 3-4 fold.
As to `NCCCC(=O)O` [GABA, Gamma aminobutyric acid], in [1], the “Increase of occurrence of cilia Ca2+ flashes” value is 3-4 fold.
As to `CN(C)C(=N)N=C(N)N` [MET, metformin], in the series on male Wistar rats, the “Garcia score (neurological deficit)” value is 12.0 (6.5; 12.5) points.
For the compound `CC(=O)C=O` [MG, methylglyoxal], in series [2] (500 μM, Hspa1a/Hspa1b KO cells), the “Hspa9 mRNA, mean” value worked out at 1.52 fold; the “Hspa9 protein, mean” value is 3.17; the “Hspd1 mRNA, mean” value is recorded as 1.57 fold; the “Hspd1 protein, mean” value amounted to 3.84. Further, in series [2] (500 μM, wild-type cells), the “Drp1 mRNA” value turned out to be 1.39 fold; the “Hspa1a mRNA, mean” value came out at 1.57 fold; the “Hspa1a/Hspa1b protein level, mean” value is reported as 1.56 fold; the “Hspa1b mRNA, mean” value worked out at 1.78 fold. In addition, in series [2] (500 μM, wild-type cells), the “Hspa9 mRNA, mean” value was found to be 1.42 fold; the “Hspa9 protein, mean” value was 1.96 fold; the “Hspd1 mRNA, mean” value is listed as 2.11 fold; the “Hspd1 protein, mean” value came to 2.35 fold. Also, in [2] (Hspa1a/Hspa1b KO cells), the “Drp1 mRNA, mean” value was 2.11. Moreover, in [2] (after MG treatment), the “Bnip3, mean” value worked out at 0.39 fold; the “Parkin, mean” value turned out to be 0.45 fold; the “Pink1, mean” value worked out at 0.69 fold. For the same compound, the “2-NBD-Glucose uptake after MG” value with H9C2 cells (20mM glucose, printed 54% vs 44%) came out at 54%. Moreover, in the series on H9C2 cells (30 mM glucose, printed 50% vs 39%), the “2-NBD-Glucose uptake after MG” value worked out at 50%.
For the compound `O=C(O)CCCc1ccccc1` [NaPB, sodium-phenylbutyrate], in [3] (setting [13]), the “Peripheral insulin sensitivity, higher than placebo” value is reported as 27% and the “ΔRd (insulin-stimulated glucose disposal rate minus baseline)” value was determined as 13.2 ± 1.8 µmol/kg/min. The “Increase of plasma phenylbutyrate levels vs placebo” value in series [3] (4.8 g/m²/day for 2 weeks, LCMS) amounted to 5.5 fold. For the same compound, in series [3] (after 2 weeks), the Fasting glucose came to 7.8 ± 0.4 mmol/L, the Fasting plasma isoleucine came out at 105.2 ± 3.5 µmol/L, the Fasting plasma leucine amounted to 168.7 ± 5.1 µmol/L and the Fasting plasma valine was found to be 275.3 ± 10.3 µmol/L. Also, in [3] (clamp), the “Peripheral insulin-mediated glucose oxidation” value is 11.9 ± 0.7 µmol/kg/min and the “ΔRER (metabolic flexibility)” value was 0.09 ± 0.01. Besides, the “O2-flux, maximally coupled mitochondrial respiration fueled by pyruvate” value in series [3] (skeletal muscle ex vivo) turned out to be 74.0 ± 4.1 pmol/s/mg.
In the series on INS1E cells (INS1E-ctr cells, 500 μM each fatty acid, MTT), `CCCCCCCC/C=C\CCCCCCCC(=O)O` [OA, oleate] gave a Cell viability of 91%.
In the case of `CCCCCCCCCCCCCCCC(=O)O` [PA, palmitate], the “Viability decrease stronger than in INS1E-ctr” value in the series with INS1E cells (INS1E-SPL cells, 500 μM) is reported as ~ 25%. The Cell viability loss with INS1E cells (INS1E-SPP cells, 500 μM) worked out at 20%.
As to `CC[C@H](C)[C@H](NC(=O)[C@H](Cc1ccccc1)NC(=O)[C@H](CCC(=O)O)NC(=O)[C@H](CCCCNC(=O)COCCOCCNC(=O)COCCOCCNC(=O)CC[C@H](NC(=O)CCCCCCCCCCCCCCCCC(=O)O)C(=O)O)NC(=O)[C@H](C)NC(=O)[C@H](C)NC(=O)[C@H](CCC(N)=O)NC(=O)CNC(=O)[C@H](CCC(=O)O)NC(=O)[C@H](CC(C)C)NC(=O)[C@H](Cc1ccc(O)cc1)NC(=O)[C@H](CO)NC(=O)[C@H](CO)NC(=O)[C@@H](NC(=O)[C@H](CC(=O)O)NC(=O)[C@H](CO)NC(=O)[C@@H](NC(=O)[C@H](Cc1ccccc1)NC(=O)[C@@H](NC(=O)CNC(=O)[C@H](CCC(=O)O)NC(=O)C(C)(C)NC(=O)[C@@H](N)Cc1cnc[nH]1)[C@@H](C)O)[C@@H](C)O)C(C)C)C(=O)N[C@@H](C)C(=O)N[C@@H](Cc1c[nH]c2ccccc12)C(=O)N[C@@H](CC(C)C)C(=O)N[C@H](C(=O)N[C@@H](CCCNC(=N)N)C(=O)NCC(=O)N[C@@H](CCCNC(=N)N)C(=O)NCC(=O)O)C(C)C` [SEMA, semaglutide], in series [4], the Diarrhoea stood at 12%, the Nausea came out at 18% and the Vomiting is 8%.
Take `C=CC(N)CCC(=O)O` (stereo not shown) [Vigabatrin]: in [1], the “Increase of occurrence of cilia Ca2+ flashes” value is listed as 3-4 fold.
Regarding `NCCCC(O)(P(=O)(O)O)P(=O)(O)O` [alendronate], where the note is “ever use”, the “Crude OR of developing type 2 diabetes” value was 0.93 and the “Multiple adjusted OR of developing type 2 diabetes” value is recorded as 0.64. The “Adjusted OR of developing type 2 diabetes” value (more than 8 years of use) was 0.47.
Regarding `NCCC(=O)N[C@@H](Cc1cnc[nH]1)C(=O)O` [carnosine], in series [5] (exercise with carnosine), the “Stimulation of coupled mitochondrial respiration rate in permeabilized muscle fibers, compared to exercise alone” value is listed as 36.5%. Further, in series [5] (setting [14]), the “Improvement in aerobic fitness (VO2max)” value is recorded as 14.8% and the “Improvement in metabolic flexibility (ΔRQ)” value is listed as 7.3%. Further, the “Improvement in sit-to-stand test” value in [5] (training combined with carnosine 2g/day, 3 months) was determined as 9.2%.
`CC(C)(Oc1ccc(C2CC2(Cl)Cl)cc1)C(=O)O` (stereo not shown) [ciprofibrate]: in series [6] (100 mg/day for 5 weeks), the Hepatic lipid content came out at 10.4 ± 10.0% and the Serum triglycerides turned out to be 1.57 ± 1.05 mmol/L. In series [6] (18F-FDG PET during clamp), the “Myocardial net glucose uptake” value was found to be 0.040 ± 0.024 ml/100ml/min/mIU insulin. In addition, the “Net hepatic glucose uptake (Ki)” value in series [6] (18F-FDG PET during hyperinsulinemic euglycemic clamp) was 0.7 ± 0.2 ml/100ml/min.
In the case of `O=C(CO)[C@@H](O)[C@H](O)[C@H](O)CO` [fructose], in series [7] (HFHS mice), the “contribution of acetyl-CoA to oleate synthesis” value came out at 7 ± 2%, the “contribution of acetyl-CoA to palmitoleate synthesis” value is 7 ± 2% and the “contribution of acetyl-CoA to the synthesis of SFA” value came to 18 ± 3%. In addition, in series [7] (HS mice), the “contribution of acetyl-CoA to oleate synthesis” value is listed as 16 ± 3% and the “contribution of acetyl-CoA to palmitoleate synthesis” value worked out at 18 ± 3%. The “contribution of acetyl-CoA to the synthesis of SFA” value in series [7] (HS mice, mean ± standard error) stood at 28 ± 4%.
For `CC[C@H](C)[C@H](NC(=O)[C@H](Cc1ccccc1)NC(=O)[C@H](CCC(=O)O)NC(=O)[C@H](CCCCNC(=O)COCCOCCNC(=O)COCCOCCNC(=O)CC[C@H](NC(=O)CCCCCCCCCCCCCCCCC(=O)O)C(=O)O)NC(=O)[C@H](C)NC(=O)[C@H](C)NC(=O)[C@H](CCC(N)=O)NC(=O)CNC(=O)[C@H](CCC(=O)O)NC(=O)[C@H](CC(C)C)NC(=O)[C@H](Cc1ccc(O)cc1)NC(=O)[C@H](CO)NC(=O)[C@H](CO)NC(=O)[C@@H](NC(=O)[C@H](CC(=O)O)NC(=O)[C@H](CO)NC(=O)[C@@H](NC(=O)[C@H](Cc1ccccc1)NC(=O)[C@@H](NC(=O)CNC(=O)[C@H](CCC(=O)O)NC(=O)C(C)(C)NC(=O)[C@@H](N)Cc1cnc[nH]1)[C@@H](C)O)[C@@H](C)O)C(C)C)C(=O)N[C@@H](C)C(=O)N[C@@H](Cc1c[nH]c2ccccc12)C(=O)N[C@@H](CC(C)C)C(=O)N[C@H](C(=O)N[C@@H](CCCNC(=N)N)C(=O)NCC(=O)N[C@@H](CCCNC(=N)N)C(=O)NCC(=O)O)C(C)C` [semaglutide], the figures for the “Premature treatment discontinuations due to AEs” value in [8] (with SGLT-2i) and in series [8] (without SGLT-2i) were 5.5% and 13.4%, respectively.
For `C/C=C(/C)C(=O)O[C@H]1C(C)=C2[C@H]([C@@H]1OC(=O)CCCCCCC)[C@@](C)(OC(C)=O)C[C@H](OC(=O)CCC)[C@@]1(O)[C@H]2OC(=O)[C@@]1(C)O` [thapsigargin], in the series with INS-1 832/13 cells, the “Decrease of insulin mRNA expression (Ins1 and Ins2)” value is listed as 85%; the “Increase of Atf4 mRNA expression” value was 3.0 fold; the “Increase of Atf6 mRNA expression” value is reported as 1.8 fold; the “Increase of Cebpg mRNA expression” value was determined as 3.7 fold. The “Increase of Xbp1s mRNA expression” value in the series on INS-1 832/13 cells is listed as 2.9 fold.
Regarding Basal insulin Fc [BIF], the “HbA1c reduction from baseline to Week 32, mean±SE” value in series [9] (BIF-A1, fasting glucose target ≤7.8 mmol/L) is 0.6±0.1%; in [9] (BIF-A2, fasting glucose target ≤6.7 mmol/L), 0.6±0.1%.
On to Insulin Degludec 100 U/mL [IDeg-100], for which, in [10], the “Incidence rate of blood glucose <54 mg/dl” value was 0.02 episodes per patient-months, the “Incidence rate of blood glucose ≤70 mg/dl” value is 0.14 episodes per patient-months, the “FBG change at 6 months” value is -61 mg/dL and the “FBG reduction at 6 months” value is recorded as 3.4 mmol/L. In addition, in series [10], the “HbA1c reduction from baseline to 12 months” value was -1.44% and the “HbA1c change from baseline to 6 months” value is reported as -1.69%.
Regarding Insulin Glargine 300U/mL [Gla-300], the “Between group mean difference in HbA1c at 6 months, Gla-300 vs IDeg-100” value in [10] (95%CI -0.29;0.27) is 0.01%. In addition, in series [10], the “Incidence rate of blood glucose <54 mg/dl” value is recorded as 0.02 episodes per patient-months, the “Incidence rate of blood glucose ≤70 mg/dl” value was 0.13 episodes per patient-months, the “FBG change at 6 months” value was -63 mg/dL and the “FBG reduction at 6 months” value stood at 3.5 mmol/L. In series [10], the “HbA1c reduction from baseline to 12 months” value is listed as -1.71% and the “HbA1c change from baseline to 6 months” value was -1.70%.
For the compound insulin, the “2-NBD-Glucose uptake after insulin” value amounted to 17% in the series on H9C2 cells (H9C2, 20mM glucose 3 months); 8% in the series with H9C2 cells (H9C2, 20mM glucose 6 months); 15% in the series on H9C2 cells (H9C2, 30mM glucose 3 months); 31% in the series on H9C2 cells (H9C2GLUT4, 20mM glucose 3 months); 27% in the series on H9C2 cells (H9C2GLUT4, 20mM glucose 6 months); 43% in the series on H9C2 cells (H9C2GLUT4, 30mM glucose 3 months).
Regarding insulin glargine U100 [IGlar U100], the “Overall hypoglycaemic episode duration, median (IQR)” value in [11] is 35.0 (20.0, 70.0) min; in series [12], 35.0 (20.0, 60.0) min.

(Values after paper PMC8408311 (Diabetologia, 2021).)
